Measured values taken from patent publication US20220388962A1 (Biohaven Therapeutics Ltd., priority 2019, published 2022).
Where a name gives a salt, the structure may show the parent alone.

These compounds were tested against TDP-43 (Homo sapiens, UniProt Q13148) (assay: TDP-43-DNA alpha-screen assay (bt-TAR-32 displacement)). Details: bt-TAR-32 0.125 nM, 15 ng/ml TDP-43.
Type: binding
Experimental: Alpha-screen assay: Displacement of bt-TG6 binding was measured using AlphaScreen technology as previously described (Cassel, J. A. et al., Journal of Biomolecular Screening, 2010, 15, 1099-1106; Cassel, J. A.; Reitz, A. B. et al. The effects of small molecule inhibitors of nucleic acid binding to TDP-43 on TDP-43 metabolism and function. Biochimie, 2012, 94, 1974-1981).
Test compounds were diluted in assay buffer (25 mM Tris [pH 7.4], 0.1% bovine serum albumin [BSA], 0.1% Triton X-100) at 4× the desired final concentration. Dilutions of test compound (50 to 0.02 μM in half-log dilutions with a no compound control well) were pre-incubated with TDP-43 (5 μl of 60 ng/mL) pre-bound to AlphaScreen® anti-GST acceptor beads (5 μl of 40 μg/mL) in 15 μl volume for 30 minutes at 23° C. with shaking. Assays were initiated by the addition of 5 μl bt-TAR-32 (5′-CTGCTTTTTGCCTGTACTGGGTCTCTGTGGTT-3′) 0.5 nM pre-bound to AlphaScreen® strepavidin donor beads (40 μg/mL). After incubation in the dark at 23° C. for 90 minutes with shaking, the AlphaScreen® signal was measured on a Synergy 2 plate reader (BioTek, Winooski, Vt.). IC50 values were determined from nonlinear regression fits of the data to a Sigmoidal dose response variable slope model in GraphPad Prism. Final assay conditions are 25 mM Tris [pH 7.4], 0.1% bovine serum albumin [BSA], 0.100 Triton X-100, 15 ng/ml TDP-43, 0.125 nM bTAR32, 10 ug/ml […].

Chain of TDP-43 (Q13148 whole entry): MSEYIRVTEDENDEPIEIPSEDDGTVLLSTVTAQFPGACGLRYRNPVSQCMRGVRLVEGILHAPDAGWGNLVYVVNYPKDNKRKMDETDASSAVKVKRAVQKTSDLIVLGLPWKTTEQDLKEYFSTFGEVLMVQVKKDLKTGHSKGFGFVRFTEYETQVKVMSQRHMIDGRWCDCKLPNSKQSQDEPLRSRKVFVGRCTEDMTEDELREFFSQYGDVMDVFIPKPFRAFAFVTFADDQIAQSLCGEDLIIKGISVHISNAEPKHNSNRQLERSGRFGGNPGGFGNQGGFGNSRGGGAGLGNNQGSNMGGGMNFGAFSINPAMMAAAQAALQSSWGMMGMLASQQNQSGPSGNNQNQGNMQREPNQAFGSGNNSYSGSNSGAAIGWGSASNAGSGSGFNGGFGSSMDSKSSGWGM

Row | Structure (SMILES) | IC50
1 | COc1ccc(-c2cc(NCCCNC3CCC4CNCC43)c3ccccc3n2)cc1 (stereo not shown) [Example 33, N^1-(2-(4-Methoxyphenyl)quinolin-4-yl)-N^3-(octahydrocyclopenta[c]pyrrol-4-yl)propane-1,3-diamine dihydrochloride] | 180 nM
2 | COc1ccc(-c2cc(NCCCNCCC3CCCCN3C(=O)OC(C)(C)C)c3ccccc3n2)cc1 (stereo not shown) [Example 44, tert-Butyl 2-(2-((3-((2-(4-methoxyphenyl)quinolin-4-yl)amino)propyl)amino)ethyl)piperidine-1-carboxylate] | 2070 nM
3 | COc1ccc(-c2cc(NCCCN3CCC(C(N)=O)CC3)c3ccccc3n2)cc1 [Example 72, 1-(3-((2-(4-Methoxyphenyl)quinolin-4-yl)amino)propyl)piperidine-4-carboxamide dihydrochloride] | 930 nM
4 | COc1ccc(-c2cc(NCCCN3CCC(O)CC3)c3ccccc3n2)cc1 [Example 75, 1-(3-((2-(4-Methoxyphenyl)quinolin-4-yl)amino)propyl)piperidin-4-ol] | 590 nM
5 | COc1ccc(-c2cc(NCCCNCCCNS(C)(=O)=O)c3ccccc3n2)cc1 [Example 66, N-(3-((3-((2-(4-Methoxyphenyl)quinolin-4-yl)amino)propyl)amino)propyl) methanesulfonamide hydrochloride] | 1410 nM
6 | NC1CCC(Nc2cc(-c3ccc(N4CCNCC4)cc3)nc3ccccc23)CC1 (stereo not shown) [Example 90] | 80 nM
7 | COc1ccc(CN(C)CCCNc2cc(-c3ccc(OC)cc3)nc3ccccc23)cc1 [Example 60, N^1-(4-Methoxybenzyl)-N^3-(2-(4-methoxyphenyl)quinolin-4-yl)-N^1-methyl propane-1,3-diamine] | 1970 nM
8 | COc1ccc(-c2cc(NCCCN3CC4CN(C(=O)OC(C)(C)C)CC4C3)c3ccccc3n2)cc1 (stereo not shown) [Example 27, tert-butyl 5-(3-((2-(4-methoxyphenyl)quinolin-4-yl)amino)propyl)hexahydro-pyrrolo[3,4-c]pyrrole-2(1H)-carboxylate] | 2080 nM
9 | COc1ccc(-c2cc(N[C@H]3C[C@H](N)C3)c3cc(OC)c(OC)cc3n2)cc1 [Example 97] | 130 nM
10 | COc1ccc(-c2cc(NCCCN3CCN(CCCN)CC3)c3ccccc3n2)cc1 [Example 46, N-(3-(4-(3-Aminopropyl)piperazin-1-yl)propyl)-2-(4-methoxyphenyl)quinolin-4-amine hydrochloride] | 360 nM
11 | COc1ccc(-c2cc(NCCCN(C)CCCN3CCCCC3)c3ccccc3n2)cc1 [Example 5, N^1-(2-(4-methoxyphenyl)quinolin-4-yl)-N^3-methyl-N^3-(3-(piperidin-1-yl)propyl)propane-1,3-diamine trihydrochloride] | 240 nM
12 | NCCCNc1cc(-c2cnn(CCN3CCCC3)c2)nc2ccccc12 [Example 100] | 160 nM
13 | COc1ccc(-c2cc(NCCCN(CCCN(C)C)CC3CNC3)c3ccccc3n2)cc1 [Example 20, N^1-(Azetidin-3-ylmethyl)-N^1-(3-((2-(4-methoxyphenyl)quinolin-4-yl)amino)propyl)-N^3,N^3-dimethylpropane-1,3-diamine] | 130 nM
14 | CNCCCN(C)CCCNc1cc(-c2ccc(OC)cc2)nc2ccccc12 [Example 2, 2-(4-Methoxyphenyl)-N-(3-{methyl[3-(methylamino)propyl]-amino}propyl) quinolin-4-amine] | 110 nM
15 | COc1ccc(-c2cc(NCCCNCc3ccnn3C)c3ccccc3n2)cc1 [Example 53, N^1-(2-(4-Methoxyphenyl)quinolin-4-yl)-N^3-((1-methyl-1H-pyrazol-5-yl)methyl) propane-1,3-diamine dihydrochloride] | 3270 nM
16 | COc1ccc(-c2cc(N[C@H]3C[C@@H](N)C3)c3ccccc3n2)cc1 [Example 112] | 490 nM
17 | COc1ccc(-c2cc(NCCCN(CCCN(C)C)CC3CCN(C(=O)OC(C)(C)C)CC3)c3ccccc3n2)cc1 [Example 19, tert-Butyl 4-(((3-(dimethylamino)propyl)(3-((2-(4-methoxyphenyl)quinolin-4-yl)amino)propyl)amino)methyl)piperidine-1-carboxylate] | 950 nM
18 | CN(C)CCCNc1cc(-c2ccc(N3CCN(C)CC3)cc2)nc2ccccc12 [Example 110] | 310 nM
19 | COc1ccc(-c2cc(NCCCN(C)CCC3CCCCN3)c3ccccc3n2)cc1 (stereo not shown) [Example 31, N^1-(2-(4-methoxyphenyl)quinolin-4-yl)-N^3-methyl-N^3-(2-(piperidin-2-yl)ethyl)propane-1,3-diamine] | 350 nM
20 | COc1ccc(-c2cc(NCCCO)c3ccccc3n2)cc1 [Example 135] | 31700 nM
21 | CNCCCCN(C)CCCNc1cc(-c2ccc(OC)cc2)nc2ccccc12 [Example 12, N^1-(3-((2-(4-Methoxyphenyl)quinolin-4-yl)amino)propyl)-N^1,N^4-dimethyl butane-1,4-diamine trihydrochloride] | 80 nM
22 | CN(C)CCCNc1cc(-c2ccc(N3CCNCC3)cc2)nc2ccccc12 [Example 99, N^1,N^1-dimethyl-N3-(2-(4-(piperazin-1-yl)phenyl)quinolin-4-yl)propane-1,3-diamine] | 150 nM

Row | Structure (SMILES) | IC50
23 | COc1ccc(-c2cc(NC3CCN(C4CCN(C)CC4)CC3)c3ccccc3n2)cc1 [Example 69, 2-(4-Methoxyphenyl)-N-(1′-methyl-[1,4′-bipiperidine]-4-yl)quinolin-4-amine] | 470 nM
24 | COc1ccc(-c2cc(NC3CCN(CCCN)CC3)c3ccccc3n2)cc1 [Example 104] | 220 nM
25 | COc1ccc(-c2cc(NCCCNCCCNc3ccncc3)c3ccccc3n2)cc1 [Example 63, N^1-(2-(4-methoxyphenyl)quinolin-4-yl)-N^3-(3-(pyridin-4-ylamino)propyl)propane-1,3-diamine dihydrochloride] | 100 nM
26 | COc1ccc(-c2cc(NC3CCNCC3)c3ccccc3n2)cc1 [Example 122] | 1170 nM
27 | COc1ncc(-c2cc(NCCCN(C)C)c3ccccc3n2)cn1 [Example 136] | 38500 nM
28 | COc1ccc(-c2cc(NCCCN(C)CCCN)c3ccccc3n2)c(C)c1 [Example 10, N^1-(3-Aminopropyl)-N^3-(2-(2-methyl-4-methoxyphenyl)quinolin-4-yl)-N^1-methylpropane-1,3-diamine] | 650 nM
29 | CN(C)CCCNc1cc(-c2ccc(N3CCNCC3)cc2)nc2ccc(F)cc12 [Example 103, N-(3-(dimethylamino)propyl)-6-fluoro-2-(4-(piperazin-1-yl)phenyl)quinolin-4-amine] | 220 nM
30 | COc1ccc(-c2cc(NCCCN(C)C)c3ccccc3n2)cc1 [Example 132] | 2720 nM
31 | CC(N)C(=O)N1CCN(c2ccc(-c3cc(NCCCN(C)C)c4ccccc4n3)cc2)CC1 (stereo not shown) [Example 92] | 90 nM
32 | COc1ccc(-c2cc(NCCCN3CCN(C)CC3)c3ccccc3n2)cc1 [Example 73, 2-(4-Methoxyphenyl)-N-(3-(4-methylpiperazin-1-yl)propyl)quinolin-4-amine] | 1710 nM
33 | N[C@H]1C[C@@H](Nc2cc(-c3ccc(N4CCNCC4)cc3)nc3ccccc23)C1 [Example 83] | 30 nM
34 | COc1ccc(-c2cc(NCCCNCc3cncn3C)c3ccccc3n2)cc1 [Example 22, N^1-(2-(4-Methoxyphenyl)quinolin-4-yl)-N^3-((1-methyl-1H-imidazol-5-yl)methyl)propane-1,3-diamine] | 680 nM
35 | COc1ccc(-c2cc(NC3CCC(F)(F)CC3)c3ccccc3n2)cc1 [Example 141] | 64500 nM
36 | COc1ccc(-c2cc(NCCCNCCCN)c3ccccc3n2)cc1 [Example 8, N-{3-[(3-Aminopropyl)amino]propyl}-2-(4-methoxyphenyl)quinolin-4-amine trihydrochloride] | 80 nM
37 | COc1ccc(-c2cc(NCCCN(C)CC3CCN(CC4CC4)CC3)c3ccccc3n2)cc1 [Example 38, N^1-((1-(Cyclopropylmethyl)piperidin-4-yl)methyl)-N^3-(2-(4-methoxyphenyl)quinolin-4-yl)-N^1-methylpropane-1,3-diamine] | 220 nM
38 | CCN(CC)CC(O)CNCCCNc1cc(-c2ccc(OC)cc2)nc2ccccc12 (stereo not shown) [Example 52, 1-(Diethylamino)-3-((3-((2-(4-methoxyphenyl)quinolin-4-yl)amino)propyl)amino)propan-2-ol dihydrochloride] | 170 nM
39 | [2H]C([2H])([2H])Oc1ccc(-c2cc(NCCCN)c3ccccc3n2)cc1 [Example 117] | 760 nM
40 | COc1ccc(-c2cc(NCCCN(C)CCCN(C)C)c3ccccc3n2)cc1 [Example 1, N^1-(3-((2-(4-Methoxyphenyl)quinolin-4-yl)amino)propyl)-N^1,N^3,N^3-trimethyl propane-1,3-diamine] | 280 nM
41 | CN(C)CCCNc1cc(-c2ccc3occc3c2)nc2ccccc12 [Example 124] | 1280 nM
42 | Cn1cc(-c2cc(NCCCN)c3ccccc3n2)cn1 [Example 125] | 1300 nM
43 | CN(CCCN)CCCNc1cc(-c2ccc(N3CCNCC3)cc2)nc2ccccc12 [Example 29, N^1-(3-aminopropyl)-N^1-methyl-N^3-(2-(4-(piperazin-1-yl)phenyl)quinolin-4-yl)propane-1,3-diamine] | 80 nM
